# Assay results from publication PMC2728625 (Nature structural & molecular biology, 2009).
# Marks after values point to notes of the source that are not given here.
# Key:
# T7 DdRp K631L = T7 DdRp K631L (Escherichia phage T7, UniProt P00573, K631L); type: biochemical
# PV RdRp WT [1] = molecular target: T1, PV RdRp WT (Poliovirus type 1, UniProt P03300); type: biochemical
# T7 DdRp WT = T7 DdRp WT (Escherichia phage T7, UniProt P00573); type: biochemical
# PV RdRp WT [2] = molecular target: T1, PV RdRp WT; type: biochemical; remark: listed apart in the source
# PV RdRp WT [3] = molecular target: T1, PV RdRp WT; details: cited from earlier work
# [4] = read-out: Kd,app (apparent dissociation constant for nucleotide)
# T1 sequence (P03300 1749-2209 limits assumed): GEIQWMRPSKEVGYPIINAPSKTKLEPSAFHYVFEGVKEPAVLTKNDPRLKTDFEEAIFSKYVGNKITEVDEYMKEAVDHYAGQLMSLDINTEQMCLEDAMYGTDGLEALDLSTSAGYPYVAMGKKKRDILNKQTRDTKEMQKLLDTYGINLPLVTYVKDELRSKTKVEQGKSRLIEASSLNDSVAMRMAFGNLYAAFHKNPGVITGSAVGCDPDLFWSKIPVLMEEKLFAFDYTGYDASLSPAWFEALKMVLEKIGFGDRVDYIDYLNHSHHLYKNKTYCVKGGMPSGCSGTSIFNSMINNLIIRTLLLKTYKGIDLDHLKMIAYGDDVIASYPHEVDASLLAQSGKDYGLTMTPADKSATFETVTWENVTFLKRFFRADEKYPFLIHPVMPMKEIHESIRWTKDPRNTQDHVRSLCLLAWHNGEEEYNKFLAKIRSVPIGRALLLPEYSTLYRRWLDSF
# Chain of T7 DdRp WT (P00573 whole entry, looked up): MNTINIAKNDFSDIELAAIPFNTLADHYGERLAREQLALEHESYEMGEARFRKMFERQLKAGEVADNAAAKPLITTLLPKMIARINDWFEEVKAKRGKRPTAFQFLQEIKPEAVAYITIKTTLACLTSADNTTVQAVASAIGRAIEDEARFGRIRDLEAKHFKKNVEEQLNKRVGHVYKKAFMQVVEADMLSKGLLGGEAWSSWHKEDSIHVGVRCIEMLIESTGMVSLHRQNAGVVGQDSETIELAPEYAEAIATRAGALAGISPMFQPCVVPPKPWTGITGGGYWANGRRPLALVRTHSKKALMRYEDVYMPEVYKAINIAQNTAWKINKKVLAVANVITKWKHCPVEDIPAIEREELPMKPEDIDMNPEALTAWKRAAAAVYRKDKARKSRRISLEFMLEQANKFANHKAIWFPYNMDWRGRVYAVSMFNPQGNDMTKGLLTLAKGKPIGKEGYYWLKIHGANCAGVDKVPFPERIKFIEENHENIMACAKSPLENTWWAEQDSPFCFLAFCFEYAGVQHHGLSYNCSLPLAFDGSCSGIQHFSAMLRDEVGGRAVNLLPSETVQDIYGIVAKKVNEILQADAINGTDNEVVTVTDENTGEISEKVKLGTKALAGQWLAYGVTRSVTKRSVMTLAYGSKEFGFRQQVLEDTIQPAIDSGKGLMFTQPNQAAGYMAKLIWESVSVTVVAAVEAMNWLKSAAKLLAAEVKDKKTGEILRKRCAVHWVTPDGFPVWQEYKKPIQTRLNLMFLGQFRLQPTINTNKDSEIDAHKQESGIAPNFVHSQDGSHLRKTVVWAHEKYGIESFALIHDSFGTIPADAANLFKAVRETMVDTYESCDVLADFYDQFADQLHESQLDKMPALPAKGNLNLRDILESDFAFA
# Chain of T7 DdRp K631L (P00573 whole entry K631L, looked up): as the sequence (P00573 whole entry, looked up) above, with K631L counted along it
structure (smiles),measurement,setting,value
Nc1ncnc2c1ncn2[C@@H]1O[C@H](COP(=O)(O)OP(=O)(O)OP(=O)(O)O)[C@@H](O)[C@H]1O [ATP],SDKIE (solvent deuterium kinetic isotope effect),T7 DdRp K631L,2.6 ± 0.5 ^c
same,kpol (maximal rate constant for nucleotide incorporation),T7 DdRp K631L,0.6 ± 0.1 s⁻¹
same,reduction in kpol relative to wt,T7 DdRp K631L,100 fold
same,Kd,T7 DdRp K631L; [4],50000 µM
same,PI (proton inventory: proton-transfer model that best fits),PV RdRp WT [1],2
same,SDKIE (solvent deuterium kinetic isotope effect),PV RdRp WT [1],3.0 ± 0.3
same,kpol (maximal rate constant for nucleotide incorporation),PV RdRp WT [1],50 ± 5 s⁻¹
same,Kd,PV RdRp WT [1]; [4],200 ± 20 µM
same,PI (proton inventory: proton-transfer model that best fits),T7 DdRp WT,2
same,SDKIE (solvent deuterium kinetic isotope effect),T7 DdRp WT,5.2 ± 0.5
same,kpol (maximal rate constant for nucleotide incorporation),T7 DdRp WT; pH 7.5,60 ± 5 s⁻¹
same,Kd,"T7 DdRp WT; read-out: Kd,app (apparent dissociation constant for nucleotide), pH 7.5",300 ± 30 µM
same,SDKIE,PV RdRp WT [2],7 ± 1
same,"pKa from pH rate profile of kpol, second ionizable group",PV RdRp WT [3],10.5
